Literature values, collected in US9457044B2, “Methods and compositions for wound healing” (CoDa Therapeutics, Inc., priority 2006, dated 2016).

Conditions: cited from earlier work

| Molecule | effective dose when applied topically (U.S. Pat. No. 4,861,757) [ng/mm^2] | concentration effective for wound healing by topical application to epithelial tissue (about 50 μl, Sotozono et al. 1995) |
| --- | --- | --- |
| PDGF | ≥ 5 |  |
| KGF: keratinocyte growth factor (protein, UniProt P21781 32-194, looked up) Fibroblast growth factor 7: CNDMTPEQMATNVNCSSPERHTRSYDYMEGGDIRVRRLFCRTQWYLRIDKRGKVKGTQEMKNNYNIMEIRTVAVGIVAIKGVESEFYLAMNKEGKLYAKKECNEDCNFKELILENHYNTYASAKWTHNGGEMFVALNQKGIPVRGKKTKKEQKTAHFLPMAIT |  | about 5 μg/ml |
